According to PMC9881157 (2023):

Assays:
Test in all cases: RNA-DRaCALA titration
[1] = system: C16 (RNA, riboswitch) CAGAAGGGUACCUAGGGUUCCGUCCAUUUGAUUCAAGGGAGUCUGGACCAAGCGGUAUCGGCACCGGGAUAUGGUGUACACCGUGGGGAUAAAAGCCUCCAGCGGCAGGUUCUGAUGCAAAAAAAGCCACCGCCACCGCCACCGCCACCGCCACCGCCACCGCC; details: 10 mM MgCl2; 20 mM Tris-HCl pH 7.5, 37 °C; 10 nM 32P-ligand
[2] = system: C21 (RNA, riboswitch) UAAGAGGCUAACUAGGGUUCCGAUGGUUUCAUGCUGGUCCAAGCGUUAGCAAACAUACUGAGGAAGGUAUGUUACACCGUUAGUACAAAAGGCUCGGCGGGAGGUCUUAUCCUUAAAAAAGCCACCGCCACCGCCACCGCCACCGCCACCGCCACCGCC; details: 10 mM MgCl2; 20 mM Tris-HCl pH 7.5, 37 °C; 10 nM 32P-ligand
[3] = system: To-B (T. oceani ilvE, biotinylated) (RNA, riboswitch) AGGAAGUGUACCUUAGGGUUCCGGCCAUAAGGCGUCAGCGACCGAGCGGUACAAUCCGGGGAAACCCGGAACACCGUGAGCAUAAAAGGCUCCAGCGGCAAGUUCCUAAAAGAC; details: 10 mM MgCl2; 20 mM Tris-HCl pH 7.5, 37 °C; 1 nM 32P-ppGpp

Row | Kd [1] [nM] | Kd [2] [nM] | Kd [3] [nM] | SMILES
1 | 137 ± 17 |  |  | Nc1nc2c(ncn2[C@@H]2O[C@H](COP(=O)(O)OP(=O)(O)OP(=O)(O)O)[C@@H](OP(=O)(O)OP(=O)(O)O)[C@H]2O)c(=O)[nH]1
2 | 33 ± 3.7 | 654 ± 121 | 22.1 ± 1.6 | Nc1nc2c(ncn2[C@@H]2O[C@H](COP(=O)(O)OP(=O)(O)O)[C@@H](OP(=O)(O)OP(=O)(O)O)[C@H]2O)c(=O)[nH]1
